{"source": "patent US11433033B2", "about": "“2,4-dinitrophenol formulations and methods using same” (priority 2013, dated 2022)", "key": {"[1]": {"test": "in vivo", "format": "in vivo, Sprague-Dawley rats", "description": "Rats consumed the concentrations of DNP or ERDNP specified in the text orally, mixed in peanut butter. All rats used for the kinetics studies consumed the entirety of the peanut butter and protonophore within 2 minutes.\nDNP concentrations were measured in plasma, liver, kidney, WAT, quadriceps, heart, and brain of Sprague-Dawley rats by LC/MS/MS (Perry, et al., 2013, Cell. Metab. 18:740-8). Rats treated with DNP were sacrificed 1 hour after treatment with DNP, and those treated with ERDNP were sacrificed 8 hours after treatment, as these were the times determined in the plasma DNP studies to represent the peak plasma DNP concentrations (FIGS. 21A-21B). The minimal detection limit of the method was determined to be […], as this was the minimum concentration of solutions of known quantities of DNP in DMSO measured by the method with less than 20% error in each of three replicates.\nLC/MS/MS method development and analysis were performed on the Applied Biosystems 4000 QTRAP (Foster City, Calif.), equipped with a Shimadzu ultra fast liquid chromatography (UFLC) system. Electrospray ionization (ESI) source with negative-ion detection was shown as the most sensitive for both qualitative and quantitative analysis of DNP. The quantitative analysis of DNP was monitored in MRM mode with an ion pair (183.0/109.0). The preferred parameters are: curtain gas 25; collision gas 9, probe temperature 480° C.; […]; ion source gas 2 25; declustering potential (DP) −45 V; entrance potential (EP) −10 V; collision energy (CE) −35 V and collision cell exit potential −12 V.\nPlasma samples (10-100 μL) were mixed with 2.0 ml pre-chilled chloroform/methanol (v/v: 2/1) containing 0.01% BHT in 5 ml glass vials, to which was added 250 μl water together with 10 nmol DNP-D3 and 10 nmol DNPME-D6 as the internal standards. The mixtures were vortexed for 10 seconds before centrifugation at 4000 rpm for 10 min. The bottom organic layer was carefully collected and dried with a steady stream of nitrogen gas. The residual was reconstituted in 200 μl methanol for LC/MS/MS analysis for DNP and/or DNPME metabolites.\nFrozen tissue samples (˜100 mg) were weighed and suspended in 2 ml microcentrifuge tubes with 1.6 ml pre-chilled chloroform/methanol (v/v: 2/1) containing 0.01% BHT and one metal bead, and then added 10 nmol DNP-d3 (Cambridge Isotopes, Andover, Mass.) as the internal standards. The tissue samples were disrupted with Qiagen TissueLyser at 30 Hz for 15 min, and then transferred into 5 ml glass vials, followed by addition of 0.5 ml chloroform and 250 μl water into each samples. The samples were centrifuged at 4000 rpm for 10 min after vortexed for 10 seconds. The bottom organic layer was collected and dried with a gentle flow of nitrogen. The residual was reconstituted in 200 μl methanol for LC/MS/MS analysis of DNP."}, "[2]": {"test": "in vivo", "format": "in vivo, Sprague-Dawley rats", "conditions": "for concentration at 5 days: Sprague-Dawley, rat, in vivo, 2 mg/kg per day"}, "[3]": {"system": "rat model of NAFLD and whole body insulin resistance", "test": "Continuous low dose intragastric DNP infusion (2 mg/kg per day, 5 days) in high fat fed rats", "format": "in vivo", "description": "For the intragastric DNP infusion studies, rats previously fed high fat diet for 2 weeks were placed in a Covance infusion harness attached to a single-axis counter-balanced swivel mount and a stainless steel one-channel swivel (all from Instech Solomon) to protect the catheters and allow the animals free access to the cage. DNP (2 mg/kg per day) or vehicle (10% dimethylsulfoxide/90% saline vehicle) was infused continuously through the […] for 5 days.\nPlasma insulin and glucagon were measured by radioimmunoassay. Plasma glucose was measured enzymatically by the YSI Life Sciences 2700 Select Biochemistry Analyzer. Plasma concentrations of twelve inflammatory markers, adiponectin, and FGF-21 were assessed by ELISA (QIAGEN, Life Technologies, and Millipore, respectively). Liver glycogen was measured by amyloglucosidase digestion (Passonneau & Lauderdale, 1974, Anal. Biochem. 60:405-12). Non-esterified fatty acid concentrations were measured by an enzymatic kit (Wako).\n(§1) Plasma triglycerides were measured using a Wako reagent. Liver and quadriceps triacylglycerol were extracted using the method of Bligh and Dyer (Bligh & Dyer, 1959, Can. J. Biochem. Physiol. 37:911-7) and quantified spectrophotometrically using a reagent from Diagnostic Chemicals Ltd. Liver and quadriceps DAG and ceramide concentrations were measured by liquid chromatography/mass spectrometry/mass spectrometry (LC/MS/MS) (Yu, et al., 2002, J. Biol. Chem. 277:50230-6), as were acylcarnitine concentrations (An, et al., 2004, Nat. Med. 10:268-74). Very low-density lipoprotein (VLDL) export was measured (Lee, et al., 2011, Hepatology 54:1650-60). Liver acetyl and malonyl CoA concentrations were measured by LC/MS/MS (Hosokawa, et al., 1986, Anal. Biochem. 153:45-9; Roughan, 1994, Biochem. J. 300:355-8)."}, "[4]": {"system": "two-week high fat fed rats", "format": "in vivo, rat", "description": "ERDNP was formulated by Emerson Resources Inc. (Malvern, Pa.) with sustained-release ethylcellulose coating. Rats used for the NAFLD reversal studies were fed high fat diet for 2 weeks, at the end of which they were treated for three days with peanut butter to acclimate them to this food. They were then treated daily with ERDNP mixed in peanut butter, or peanut butter vehicle, at the doses specified in the text daily for 5 days. Zucker Diabetic Fatty rats were treated with ERDNP (1 mg/kg) in peanut butter or peanut butter vehicle daily for 14 days. Blood glucose was measured by glucometer (Abbott) from the tail vein every three days.\n(§2) Alanine aminotransferase, aspartate aminotransferase, and blood urea nitrogen were measured using the COBAS Mira Plus, and creatinine by LC/MS/MS. Body temperature was measured using a rectal probe (Physitemp Instruments). Histology slides were stained with hematoxylin & eosin, Sirius Red, and TUNEL stains.\nas §1"}, "[5]": {"system": "high fat fed rats", "test": "Hepatic fluxes (VTCA, VPC, Vfa, VPDH) by [3-13C] lactate infusion, NMR-LC/MS/MS", "conditions": "rat, in vivo", "description": "To measure total glutamate enrichment from livers of rats infused with [3-^13C] lactate, ˜100 mg frozen liver were homogenized in 400 μL ice-cold 50% acetonitrile. The samples were centrifuged at 10,000 g for 10 min, and the supernatant was isolated. After overnight storage at 4° C., the samples were centrifuged at 10,000 g for 10 min through a Nanosep 100 k Omega filter (Pall Life Sciences). The flow-through was separated on a hypercarb column (Thermo Scientific; 4.6×100 mm; 5 μm particle size) before ionization for multiple reaction monitoring analysis by LC/MS/MS (Applied Biosystems MDS SCIEX, 4000 Q-TRAP). […]\nSpectra were acquired with relaxation time=1 s, dummy scans=32, and number of scans=8,192 per block×3 blocks. Correction factors for differences in T relaxation times were determined from fully relaxed spectra of natural abundance glutamate and glucose solutions. […]\nTotal glucose enrichment in the NMR extract was determined by derivatizing 20 μL of the NMR extract with 100 μL methanol, then drying overnight in a Speed-Vac. […]\nTo measure positional alanine enrichment from [3-^13C] lactate infused rat livers, liver samples were extracted for NMR as described above, and the enrichment at [2-^13C] and [3-^13C] alanine was measured by proton-observed, carbon-edited NMR as we have reported (Alves et al., 2011, Hepatology 53:1175-1181). […]"}, "[6]": {"system": "rats", "test": "Toxicity studies: rectal temperature, liver enzymes, BUN, creatinine, histology", "format": "in vivo, rat", "description": "as §2\nLiver and kidney samples were prepared and stained with hematoxylin & eosin by the Yale Research Histology core, and analyzed as described (Kleiner et al., 2005, Hepatology 41:1313-1321)."}, "[7]": {"conditions": "intragastric DNP 2 mg/kg per day, 5 days"}}, "note": "“Also recorded” adds a separate entry of the source. Where two headings read alike, the source gives them in different places."}
{"smiles": "O=[N+]([O-])c1ccc(O)c([N+](=O)[O-])c1", "note": "[DNP, 2,4-dinitrophenol]", "values": [{"measurement": "tissue DNP concentrations after chronic treatment compared with one (or five) daily doses", "setting": "[1]; 1 mg/kg per day, rats", "value": "no differences; also recorded: did not differ significantly"}, {"measurement": "maximum plasma concentration of DNP, fold higher with DNP treatment than with ERDNP", "setting": "[1]; 25 mg/kg DNP versus 1 mg/kg ERDNP", "value": 30, "unit": "fold"}, {"measurement": "concentration at 8 hours", "setting": "[1]; Sprague-Dawley, rat, in vivo, 1 mg/kg, 8 hours after the last of five daily 1 mg/kg doses (FIG. 21J), read-out: DNP concentrations in all tissues following chronic treatment", "value": "< 10000", "unit": "nM"}, {"measurement": "half-life", "setting": "[1]; Sprague-Dawley, rat, in vivo, 25 mg/kg, plasma DNP, rats", "value": "8 to 12", "unit": "h"}, {"measurement": "peak DNP liver concentration", "setting": "[1]; dose of DNP 5 mg/kg, rat", "value": "~60", "unit": "µM"}, {"measurement": "peak plasma DNP concentration", "setting": "[1]; dose of DNP 5 mg/kg, rat", "value": "~120", "unit": "µM"}, {"measurement": "area under the plasma DNP concentration curve", "setting": "[1]; oral, rats, 1 mg/kg ERDNP versus 25 mg/kg DNP", "value": "4,311±555"}, {"measurement": "time of maximum concentration of DNP", "setting": "[1]; plasma, rats, 1 mg/kg ERDNP versus 25 mg/kg DNP", "value": "one"}, {"measurement": "concentration at 5 days", "setting": "[2]; intragastric DNP infusion 2 mg/kg per day, 5 days, rats, read-out: steady state liver DNP concentration", "value": "~1000", "unit": "nM"}, {"measurement": "concentration at 5 days", "setting": "[2]; intragastric DNP infusion 2 mg/kg per day, 5 days, rats, read-out: steady state plasma DNP concentration", "value": "~3000", "unit": "nM"}, {"measurement": "sustained plasma and tissue concentrations of DNP that reversed hepatic steatosis and insulin resistance", "setting": "[2]; continuous intragastric DNP infusion, rat model of NAFLD", "value": "1-3 VM"}, {"measurement": "plasma DNP concentrations, fold lower than the threshold where DNP toxicity is first detected", "setting": "[2]; continuous low dose intragastric infusion of DNP", "value": "~100", "unit": "fold"}, {"measurement": "sustained plasma and liver concentrations of DNP that reversed fatty liver and whole body insulin resistance", "setting": "[2]; continuous low dose intragastric infusion, high fat rat model of NAFLD", "value": "1 to 3", "unit": "µM"}, {"measurement": "DNP concentration in skeletal muscle", "setting": "[2]; intragastric DNP infusion 2 mg/kg per day, 5 days, rats", "value": "negligible"}, {"measurement": "liver enzymes, blood urea nitrogen (BUN) or creatinine", "setting": "[3]; chronic intragastric DNP infusion 2 mg/kg per day", "value": "no observed changes"}, {"measurement": "fasting plasma glucose and insulin concentrations", "setting": "[3]; [7]", "value": "lower"}, {"measurement": "reductions in liver and muscle TAG and diacylglycerol (DAG) content", "setting": "[3]; [7]", "value": "> 50", "unit": "%"}, {"measurement": "reductions in plasma triglycerides", "setting": "[3]; [7]", "value": "> 80", "unit": "%"}, {"measurement": "tissue ceramide content", "setting": "[3]; [7]", "value": "no changes"}, {"measurement": "daily doses that raised ALT", "setting": "[4]; daily for five days", "value": "above 2 mg/kg"}, {"measurement": "daily doses that raised AST concentrations", "setting": "[4]; daily for five days", "value": "above 1 mg/kg"}, {"measurement": "effect of the highest dose on BUN", "setting": "[4]; daily for five days", "value": "raised BUN"}, {"measurement": "lowest effective dose to decrease liver triglyceride", "setting": "[4]; daily for five days, two-week high fat fed rats", "value": 5, "unit": "mg/kg"}, {"measurement": "ratio of toxic to therapeutic dose", "setting": "[4]; rats", "value": 0.4}, {"measurement": "toxic dose", "setting": "[4]; rats", "value": 2, "unit": "mg/kg"}, {"measurement": "concentrations of DNP found to promote subtle increases in hepatic mitochondrial uncoupling", "setting": "[5]", "value": "1 to 5", "unit": "µM"}, {"measurement": "toxic plasma threshold of DNP", "setting": "[6]; plasma concentration", "value": "~400", "unit": "µM"}, {"measurement": "relation between plasma DNP concentration and body temperature", "setting": "[6]; rats treated with 10-50 mg/kg DNP", "value": "strong correlation"}]}
